From patent publication US6492414B1, “Methods and compositions for the treatment and prevention of lung disease” (Allergan, Inc., priority 1999, dated 2002)

Columns and labels:
Sprague-Dawley rat pups = assay: Alveolus formation (septation) in newborn rat pups, daily intraperitoneal injection, lung histology and morphometry; format: in vivo
Source text: This retinoid, termed AGN 193174, has a structure defined by the formula [drawing 1]
Following sacrifice, rat lungs were fixed and histological sections prepared essentially as described in Massaro et al., Am. J. Physiol. 270: L305 (1996), incorporated by reference herein. The histological sections were viewed and photographs taken under light microscopy.
The differences in alveolar dimensions between =treated and untreated rat pups were so pronounced, they were quantitated by measuring the distance between alveolar walls (Lm) and the surface-to-volume ratio (S/V) of the gas-exchange structures (septa). The Lm in cottonseed oil-treated rats was 80 μm±2.8 μm (N=4) compared to 110 μm±7.3 μm (N=3) in RARβ agonist-treated rats (N=3; P=0.03 by Mann Whitney nonparametric analysis). The S/V was 504 μm^−1±18 μm^−1(N=4) in cottonseed oil-treated rats compared to 365 μm^−1±23 μm^−1(N=3) in RARβ agonist-treated rats (P=0.03).

RARγ = target: T1, RARγ (Homo sapiens, UniProt P13631); assay: RAR isotype activity stated for the retinoid ligand (RARγ)
T1 sequence (P13631 1-454): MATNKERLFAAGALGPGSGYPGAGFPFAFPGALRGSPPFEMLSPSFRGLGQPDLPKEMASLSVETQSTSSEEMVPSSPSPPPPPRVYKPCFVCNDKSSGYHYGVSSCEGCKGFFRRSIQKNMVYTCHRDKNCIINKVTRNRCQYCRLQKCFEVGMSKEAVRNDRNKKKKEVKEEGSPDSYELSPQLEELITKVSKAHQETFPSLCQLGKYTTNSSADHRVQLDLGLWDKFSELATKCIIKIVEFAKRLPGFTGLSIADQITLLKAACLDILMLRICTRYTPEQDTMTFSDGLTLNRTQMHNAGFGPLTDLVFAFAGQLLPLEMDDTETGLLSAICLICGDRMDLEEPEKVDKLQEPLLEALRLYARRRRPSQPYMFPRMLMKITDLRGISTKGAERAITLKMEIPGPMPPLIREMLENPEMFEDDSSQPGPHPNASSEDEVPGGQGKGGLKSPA

RARβ = assay: RAR isotype activity stated for the retinoid ligand (RARβ)
RAR receptors = assay: Receptor class specificity, RAR versus RXR
[1] = test system: rats treated with elastase; details: cited from earlier work
all RAR isotypes = details: cited from earlier work
newborn rats = details: cited from earlier work

Row | SMILES | alveolar size and degree of septation in histological sections versus cottonseed oil alone (Sprague-Dawley rat pups; age 14 days, treated daily from age 3 through 13 days, FIGS. 1A and 1B) | Lung volume versus cottonseed oil-treated rats (Sprague-Dawley rat pups; rat pups, 500 micrograms per kg i.p. daily from age 3 to 13 days) | activity at RARγ (RARγ) | activity at RARβ (agonist) (RARβ) | activity at RARβ (antagonist (so in the source)) (RARβ) | specificity RAR versus RXR receptors (RAR receptors) | effect on elastase-induced destruction of alveolar walls [1] | agonist activity at RAR isotypes (all RAR isotypes) | effect on number of alveoli (newborn rats)
1 | CC1(C)CC=C(c2cccs2)c2cc(C#Cc3ccc(C(=O)O)cc3)ccc21 [AGN 193174] | alveoli were larger, and the degree of sepatation less | the same in both rat groups | antagonist activity | RARβ agonist activity | antagonist activity | specific to RAR receptors and not to RXR receptors |  |  | 
2 | CC1=C(/C=C/C(C)=C/C=C/C(C)=C/C(=O)O)C(C)(C)CCC1 [ATRA, all-trans-retinoic acid] |  |  |  |  |  |  | appeared to reverse this destruction | an agonist of all RAR isotypes | induced the formation of an increased number of alveoli in rats without enlarging the lung
